Source: patent US10865384B2, “2,4,5-tri-substituted azole-based casein kinase 1 inhibitors as inducers for cardiomyogenesis” (AGENCY FOR SCIENCE, TECHNOLOGY AND RESEARCH, priority 2014, dated 2020)
“Also recorded” adds a separate entry of the source. Like-named read-outs stand apart in the source and are kept apart here.

Key:
hESC3 Nkx2.5eGFP/w cells [1] = assay: Differentiation in 96-U bottom ultra-low attachment well plates, GFP area imaging; assay type: cell-based, human; conditions: 5 μM; for Average GFP %: after CHIR99021, read on day 14, GFP area over embryoid body size; for Average GFP μm^2 / Average Area μm^2: day 14; for Average Area μm^2: embryoid body size
hESC3 Nkx2.5eGFP/w cells [2] = assay: Cardiomyocyte differentiation of embryoid bodies, Nkx2.5 GFP by flow cytometry; assay type: cell-based, human; conditions: for Cardiogenic effect (GFP expression fold over DMSO): 5 μM
p38α MAPK [3] = target: T1, p38α MAPK (Homo sapiens (Human), UniProt Q16539); assay: HitHunter p38 MAP kinase binding assay; conditions: read-out: p38α MAPK IC50 ± SEM
T1 sequence (Q16539 whole entry, looked up): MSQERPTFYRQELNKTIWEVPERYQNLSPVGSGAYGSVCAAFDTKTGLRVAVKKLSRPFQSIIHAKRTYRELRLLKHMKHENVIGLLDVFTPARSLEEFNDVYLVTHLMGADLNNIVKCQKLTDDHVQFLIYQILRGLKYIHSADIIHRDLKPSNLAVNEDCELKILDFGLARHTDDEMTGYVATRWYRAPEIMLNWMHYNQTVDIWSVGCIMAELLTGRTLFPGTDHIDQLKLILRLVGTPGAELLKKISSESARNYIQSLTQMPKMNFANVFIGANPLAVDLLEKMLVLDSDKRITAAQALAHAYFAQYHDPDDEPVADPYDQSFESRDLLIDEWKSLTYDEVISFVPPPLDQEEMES

H3 hESCs Nkx2.5eGFP/w = assay: High yield cardiomyocyte differentiation after 24 h CHIR99021 pre-treatment; assay type: cell-based, human
CK1δ = CK1δ (Homo sapiens (Human), UniProt P48730); assay: LanthaScreen Eu kinase binding assay, CK1δ
CK1δ, sequence (P48730 whole entry): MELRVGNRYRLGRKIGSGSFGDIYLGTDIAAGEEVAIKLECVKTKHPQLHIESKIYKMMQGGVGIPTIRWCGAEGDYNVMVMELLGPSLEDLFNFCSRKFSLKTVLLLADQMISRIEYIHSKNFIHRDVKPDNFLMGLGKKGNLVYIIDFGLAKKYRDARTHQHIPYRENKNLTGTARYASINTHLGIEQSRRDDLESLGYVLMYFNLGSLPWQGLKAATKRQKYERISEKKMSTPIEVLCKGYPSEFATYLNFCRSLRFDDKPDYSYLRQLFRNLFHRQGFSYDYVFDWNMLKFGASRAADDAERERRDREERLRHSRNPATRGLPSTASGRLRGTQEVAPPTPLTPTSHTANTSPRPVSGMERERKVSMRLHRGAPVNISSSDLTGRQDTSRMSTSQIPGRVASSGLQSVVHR

CK1ϵ = CK1ϵ (Homo sapiens (Human), UniProt P49674); assay: LanthaScreen Eu kinase binding assay, CK1ϵ
CK1ϵ, sequence (P49674 whole entry): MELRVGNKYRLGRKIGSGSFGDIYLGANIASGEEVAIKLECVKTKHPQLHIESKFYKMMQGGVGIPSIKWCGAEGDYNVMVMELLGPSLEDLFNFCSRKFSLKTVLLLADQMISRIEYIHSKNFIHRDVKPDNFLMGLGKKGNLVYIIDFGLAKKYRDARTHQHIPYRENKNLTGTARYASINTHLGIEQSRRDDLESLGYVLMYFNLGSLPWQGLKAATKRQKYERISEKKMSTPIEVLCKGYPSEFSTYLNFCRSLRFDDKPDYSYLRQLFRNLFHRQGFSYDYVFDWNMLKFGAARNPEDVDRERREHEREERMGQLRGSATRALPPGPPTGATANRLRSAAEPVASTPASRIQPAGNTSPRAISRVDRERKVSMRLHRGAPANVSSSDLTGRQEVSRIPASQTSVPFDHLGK

HES-3 = assay: Differentiation on microcarriers; assay type: cell-based, human; conditions: microcarrier platform, 5 μM
Protocol: HES-3 were seeded at 2×10^5 cells/ml in the 50 ml spinner flask that contained 25 ml hESC medium and 200 mg PLL+LN-coated MC (poly-L-lysine and laminin coated microcarrier). The sample was incubated at 37° C./5% carbon dioxide for 24 hours in static conditions, after which another 25 ml hESC medium were added and the culture was then agitated at 30 rpm for 6 days. Eighty percent of the spent medium was replaced daily with fresh hESC medium. The cell concentration and cell viability were determined daily using a Nucleocounter NC-3000 (Chemometec, Davis, Calif., USA). Pluripotent markers were measured by flow cytometry on day 7. The size of the hESC/MC aggregates was measured from images taken using an Olympus IX70 microscope (Olympus, Shinjuku-ku, Tokoyo, Japan), with average dimensions determined using NIH image J software.
After 24 hours the differentiation medium was replenished, and 5 μM IWP-2 or TA-01 was added at day 3. […] On day 20 of the differentiation protocol, cells from all cultures were harvested and analyzed by fluorescence-activated cell sorting (FACS) for cardiac markers MLC2a and Tropoin T (cTnt) and MF20.
Studies with the 2,4,5-tri-substituted azole compounds were done at a fixed concentration of 5 μM at an induction day 2 and alternatively at day 3. […] On day 14 of differentiation, EBs were visually analysed for cardiomyocyte differentiation. […]

p38α MAPK [4] = target: T1, p38α MAPK; assay: LanthaScreen Eu kinase binding assay, p38 MAPK (IM-32 to IM-44); conditions: LanthaScreen Eu binding assay (IM-32 to IM-44); read-out: p38α MAPK IC50 ± SEM
Protocol: The p38 MAPK IC50 values of selected compounds except IM-32 to IM-44 were determined using the HitHunter™ p38 MAP kinase binding assay from DiscoveRx Corporation (Fremont, Calif., USA). The p38 MAPK IC50 values of IM-32 to IM-44 and the CK1 IC50 values of selected compounds were determined using LanthaScreen™ Eu kinase binding assay from Invitrogen (Life Technologies, Carlsbad, Calif., USA). The assays were performed following the manufacturers' protocols in white 384-well plates (Cat. No. 3572; Corning Incorporated, Corning, N.Y., USA). SB203580 was used as the control in all assays. For the HitHunter™ p38 MAP kinase binding assay the compounds were dissolved in DMSO (5 mM stocks) and diluted to a final concentration of 2% (vol/vol) DMSO for all assays. Recombinant GST-tagged active p38α MAP kinase enzyme (Millipore, Billerica, Mass., USA) was used for the HitHunter™ p38 MAP kinase binding assay. For the LanthaScreen™ Eu kinase binding assay the compounds were dissolved in DMSO (5 mM stocks) and diluted to a final concentration of 1% (vol/vol) DMSO for all assays. Each data point was done in triplicate. The assay was run using JANUS Automated Workstation according to the protocol developed using WinPREP software (Perkin Elmer Inc., Waltham, Mass., USA). Tecan Infinite® M1000 microplate reader (Tecan Group Ltd., Minnedorf, Switzerland) was used for luminescence measurements (HitHunter™ p38 MAP kinase binding assay) and fluorescence measurements (LanthaScreen™ Eu kinase binding assay; ex=340 nm, em=665, 615 nm). All data analysis was performed using GraphPad Prism 5 software (GraphPad Software Inc.). Inhibition curves and IC50 values were generated by nonlinear regression analysis and data represent mean±SEM.
The in vitro IC50 values of the synthesized compounds against the relevant kinase targets are summarized. The IC50 values were determined using either the HitHunter™ p38 MAPK binding assay from DiscoveRx or the LanthaScreen™ Eu kinase binding assay (for p38alpha MAPK, CK1delta, and CK1epsilon) from Invitrogen.

[5] = CHIR99021 only, CHIR99021 with SB203580 (days 1-8), CHIR99021 with IM-31 (days 4-8)

Structure (SMILES)	IC50 (CK1δ; Table 3, read-out: IC50 CK1δ) [nM]	IC50 (CK1δ; read-out: CK1δ IC50 ± SEM) [nM]	IC50 (CK1ϵ; Table 3, read-out: IC50 Ck1ε) [nM]	IC50 (CK1ϵ; read-out: CK1ϵ IC50 ± SEM) [nM]	inhibition at 1 µM (CK1δ) [%]	IC50 (p38α MAPK [4]) [nM]	inhibition at 1 µM (CK1ϵ) [%]	other results
Fc1ccc(-c2nc(-c3c(F)cccc3F)[nH]c2-c2ccncc2)cc1 [IM-31, 4-(2-(2,6-difluorophenyl)-4(5)-(4-fluorophenyl)-1H-imidazol-5(4)-yl)pyridine]	6.8	6.8 ± 0.9	6.4	6.4 ± 0.4	–	–	–	Cardiogenic properties (hESC3 Nkx2.5eGFP/w cells [1]; at specific time course (induction day 2 or 3)): higher cardiogenic properties as SB203580 and IWP-2; Average GFP % (hESC3 Nkx2.5eGFP/w cells [1]; Induction Day 2): 1.5%; Average GFP μm^2 (hESC3 Nkx2.5eGFP/w cells [1]; Induction Day 2): 19.1 μm^2; Average Area μm^2 (hESC3 Nkx2.5eGFP/w cells [1]; Induction Day 2): 814.7 μm^2; Average GFP % (hESC3 Nkx2.5eGFP/w cells [1]; Induction Day 3): 31.1%; Average GFP μm^2 (hESC3 Nkx2.5eGFP/w cells [1]; Induction Day 3): 476.6 μm^2; Average Area μm^2 (hESC3 Nkx2.5eGFP/w cells [1]; Induction Day 3): 1529.1 μm^2; Cardiogenic effect (Nkx2.5 expression) (hESC3 Nkx2.5eGFP/w cells [2]; 1 μM): same cardiogenic effect as 5 μM of SB203580; Cardiogenic effect (GFP expression fold over DMSO) (hESC3 Nkx2.5eGFP/w cells [2]; days 1-8 of differentiation): complete inhibition of cardiomyocyte development; also recorded: failed to induced cardiomyogenesis; Cardiogenic effect (GFP expression fold over DMSO) (hESC3 Nkx2.5eGFP/w cells [2]; days 4-8 of differentiation): good inducers; Cardiomyocytes generated (hESC3 Nkx2.5eGFP/w cells [2]; applied as the sole inhibitor): 10-20%; IC50 (p38α MAPK [3]): 6.7 ± 1.5 nM; Total cell count, fold increase (cell expansion) (H3 hESCs Nkx2.5eGFP/w; 3 μM CHIR99021 24 h then 5 μM days 4-8, day 11): 2 fold; Average beating frequency (H3 hESCs Nkx2.5eGFP/w; [5]): 25-30 beats per minute; Beat count (percentage of EBs contracting within 10 s) (H3 hESCs Nkx2.5eGFP/w; [5]): over 75%; Beating area (H3 hESCs Nkx2.5eGFP/w; [5]): > 5 mm^2; Cardiomyocyte development (H3 hESCs Nkx2.5eGFP/w; CHIR99021 then 5 μM days 1-8): inhibition of cardiomyocytes development; Cardiomyocyte yield, cardiomyocytes per hESC seeded (H3 hESCs Nkx2.5eGFP/w; CHIR99021 then 5 μM days 4-8, day 11): ~1.2 cardiomyocytes per hESC seeded; Cardiomyocyte yield compared to other Wnt inhibitor compounds such as IWP-2 (H3 hESCs Nkx2.5eGFP/w; combination with CHIR99021): twofold increase in cardiomyocyte yield; Amounts of cardiomyocytes (cell numbers) compared to IWP-2 (HES-3): same amounts of cardiomyocytes
Cc1cccc(-c2nc(-c3ccc([N+](=O)[O-])cc3)[nH]c2-c2ccncc2)c1 [IM-32, 4-(2-(4-nitrophenyl)-4(5)-(m-tolyl)-1H-imidazol-5(4)-yl)pyridine]	–	–	–	–	31	4.4 ± 2.4	47	–
Cc1cccc(-c2nc(-c3ccc(S(C)(=O)=O)cc3)[nH]c2-c2ccncc2)c1 [IM-33, 4-(2-(4-(methylsulfonyl)phenyl)-4(5)-(m-tolyl)-1H-imidazol-5(4)-yl)pyridine]	–	–	–	–	23	9.5 ± 2.8	36	–
Cc1cccc(-c2nc(-c3ccc(N)cc3)[nH]c2-c2ccncc2)c1 [IM-34, 4-(5(4)-(pyridin-4-yl)-4(5)-(m-tolyl)-1H-imidazol-2-yl)aniline]	–	–	–	–	24	2.8 ± 2	28	–
Cc1cccc(-c2nc(-c3ccc(NS(C)(=O)=O)cc3)[nH]c2-c2ccncc2)c1 [IM-35, N-(4-(5(4)-(pyridin-4-yl)-4(5)-(m-tolyl)-1H-imidazol-2-yl)phenyl)methanesulfonamide]	–	–	–	–	13	5	40	–
Cc1cccc(-c2nc(-c3ccc(C#N)cc3)[nH]c2-c2ccncc2)c1 [IM-36, 4-(5(4)-(pyridin-4-yl)-4(5)-(m-tolyl)-1H-imidazol-2-yl)benzonitrile]	–	–	–	–	11	5.3 ± 0.5	36	–
Cc1cccc(-c2nc(-c3ccc(C(=N)NO)cc3)[nH]c2-c2ccncc2)c1 [IM-37, (Z)—N′-hydroxy-4-(5(4)-(pyridin-4-yl)-4(5)-(m-tolyl)-1H-imidazol-2-yl)benzimidamide]	889	889 ± 290	295	295 ± 48	–	3.2 ± 0.3	–	–
Cc1cccc(-c2nc(-c3ccc(C(=O)O)cc3)[nH]c2-c2ccncc2)c1 [IM-38, 4-(5(4)-(pyridin-4-yl)-4(5)-(m-tolyl)-1H-imidazol-2-yl)benzoic acid]	4710	4710 ± 1620	1060	1060 ± 108	–	3.3 ± 1.1	–	–
